Results from US10385103B2, “Cell-permeable (ICP)-SOCS3 recombinant protein and uses thereof” (CELLIVERY THERAPEUTICS, INC., priority 2014, dated 2019).

System: RAW 264.7 cells
Test: Quantitative cell-permeability of FITC-labeled aMTD- or rPeptide-fused CRA recombinant proteins (flow cytometry)
Format: cell-based
Conditions: for Relative Ratio to aMTD AVE: cell-permeability of rPeptide-fused CRA recombinant protein relative to average of 240 aMTDs
Outline: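 Uptake of fluorescently labeled, peptide-fused cargo proteins was quantified by flow cytometry (Guava, Millipore) and analyzed in FlowJo software. RAW 264.7 cells received 10 μM FITC-labeled protein for 1 hour at 37° C., were rinsed three times with cold PBS, and were trypsinized with 0.25% tripsin/EDTA for 20 minutes at 37° C. to remove bound protein before measurement. Permeability was expressed relative to reference proteins.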

[1] = cell-permeability of aMTD-fused CRA recombinant protein relative to negative control (A: rP38)
[2] = cell-permeability of aMTD-fused CRA recombinant protein relative to reference CPP (B: MTM12)
[3] = cell-permeability of aMTD-fused CRA recombinant protein relative to reference CPP (C: MTD85)
[4] = cell-permeability relative to negative control rP38 (A type), aMTD-fused CRA recombinant protein, 10 μM FITC-labeled, 1 hour, 37° C., RAW 264.7 cells
[5] = cell-permeability relative to reference CPP MTD85 (C type), aMTD-fused CRA recombinant protein, 10 μM FITC-labeled, 1 hour, 37° C., RAW 264.7 cells
[6] = cell-permeability relative to reference CPP MTM12 (B type), aMTD-fused CRA recombinant protein, 10 μM FITC-labeled, 1 hour, 37° C., RAW 264.7 cells
[7] = 10 μM FITC-labeled, 1 hour, 37° C., RAW 264.7 cells

| Substance | Relative Ratio (Fold) A [1] [Fold] | Relative Ratio (Fold) B [2] [Fold] | Relative Ratio (Fold) C [3] [Fold] | Relative Ratio (Fold) A [4] [Fold] | Relative Ratio (Fold) C [5] [Fold] | Relative Ratio (Fold) B [6] [Fold] | Relative Ratio to aMTD AVE [7] |
| --- | --- | --- | --- | --- | --- | --- | --- |
| 405 (LAAAVIPVAILP; Amino acid Sequence of aMTD405) [compound 405] | 22.2 | 14.8 | 7.5 | – | – | – | – |
| 421 (AAILAAPLIAVP; Amino acid Sequence of aMTD421) [compound 421] | – | – | – | 6.7 | 2.3 | 4.5 | – |
| 422 (VVAILAPLLAAP; Amino acid Sequence of aMTD422) [compound 422] | 19.6 | 13.1 | 6.6 | – | – | – | – |
| 424 (AVVVAAPVLALP; Amino acid Sequence of aMTD424) [compound 424] | – | – | – | 6.6 | 2.2 | 4.4 | – |
| 425 (AVVAIAPVLALP; Amino acid Sequence of aMTD425) [compound 425] | 9.4 | 6.3 | 3.2 | – | – | – | – |
| 426 (AAALAIPLAIIP; Amino acid Sequence of rPeptide ID 426) [compound 426] | – | – | – | – | – | – | 0.40 |
| 442 (ALAALVPAVLVP; Amino acid Sequence of aMTD442) [compound 442] | 20.4 | 12.6 | 6.9 | – | – | – | – |
| 443 (ALAALVPVALVP; Amino acid Sequence of aMTD443) [compound 443] | 8.0 | 5.3 | 2.7 | – | – | – | – |
| 444 (LAAALVPVALVP; Amino acid Sequence of aMTD444) [compound 444] | 8.1 | 5.4 | 2.7 | – | – | – | – |
| 445 (ALAALVPALVVP; Amino acid Sequence of aMTD445) [compound 445] | – | – | – | 6.9 | 2.3 | 4.6 | – |
| 461 (IAAVIVPAVALP; Amino acid Sequence of aMTD461) [compound 461] | 19.0 | 12.7 | 6.4 | – | – | – | – |
| 462 (IAAVLVPAVALP; Amino acid Sequence of aMTD462) [compound 462] | – | – | – | 6.3 | 2.1 | 4.2 | – |
| 463 (AVAILVPLLAAP; Amino acid Sequence of aMTD463) [compound 463] | 17.6 | 11.7 | 5.9 | – | – | – | – |
| 464 (AVVILVPLAAAP; Amino acid Sequence of aMTD464) [compound 464] | 22.3 | 14.9 | 7.5 | – | – | – | – |
| 465 (IAAVIVPVAALP; Amino acid Sequence of aMTD465) [compound 465] | 7.4 | 4.9 | 2.5 | – | – | – | – |
| 466 (IIAAAAPLAIIP; Amino acid Sequence of rPeptide ID 466) [compound 466] | – | – | – | – | – | – | 0.52 |
| 482 (ILAVAAIPVAVP; Amino acid Sequence of aMTD482) [compound 482] | 15.8 | 10.6 | 5.3 | – | – | – | – |
| 483 (ILAAAIIPAALP; Amino acid Sequence of aMTD483) [compound 483] | – | – | – | 6.8 | 2.3 | 4.5 | – |
| 484 (LAVVLAAPAIVP; Amino acid Sequence of aMTD484) [compound 484] | 15.8 | 10.4 | 5.3 | – | – | – | – |
| 485 (AILAAIVPLAVP; Amino acid Sequence of aMTD485) [compound 485] | – | – | – | 6.8 | 2.3 | 4.5 | – |
| 501 (VIVALAVPALAP; Amino acid Sequence of aMTD501) [compound 501] | 21.5 | 14.4 | 7.2 | – | – | – | – |
| 502 (AIVALAVPVLAP; Amino acid Sequence of aMTD502) [compound 502] | – | – | – | 5.6 | 1.9 | 3.7 | – |

| Substance | Relative Ratio (Fold) A [1] [Fold] | Relative Ratio (Fold) B [2] [Fold] | Relative Ratio (Fold) C [3] [Fold] | Relative Ratio (Fold) A [4] [Fold] | Relative Ratio (Fold) C [5] [Fold] | Relative Ratio (Fold) B [6] [Fold] | Relative Ratio to aMTD AVE [7] |
| --- | --- | --- | --- | --- | --- | --- | --- |
| 504 (LIVALAVPALAP; Amino acid Sequence of aMTD504) [compound 504] | – | – | – | 3.3 | 1.1 | 2.2 | – |
| 505 (AIIIVIAPAAAP; Amino acid Sequence of aMTD505) [compound 505] | 12.4 | 8.3 | 4.2 | – | – | – | – |
| 507 (VAIALAPVVVAP; Amino acid Sequence of aMTD907) [compound 507] | 8.1 | 5.4 | 2.8 | – | – | – | – |
| 521 (LAALIVVPAVAP; Amino acid Sequence of aMTD521) [compound 521] | 9.4 | 6.3 | 3.2 | – | – | – | – |
| 522 (ALLVIAVPAVAP; Amino acid Sequence of aMTD522) [compound 522] | 22.7 | 15.2 | 7.7 | – | – | – | – |
| 524 (AVALIVVPALAP; Amino acid Sequence of aMTD524) [compound 524] | 18.3 | 12.2 | 6.2 | – | – | – | – |
| 525 (ALAIVVAPVAVP; Amino acid Sequence of aMTD525) [compound 525] | 13.8 | 9.2 | 4.7 | – | – | – | – |
| 541 (LLALIIAPAAAP; Amino acid Sequence of aMTD541) [compound 541] | 14.8 | 9.9 | 5.0 | – | – | – | – |
| 542 (ALALIIVPAVAP; Amino acid Sequence of aMTD542) [compound 542] | 16.2 | 10.8 | 5.5 | – | – | – | – |
| 543 (LLAALIAPAALP; Amino acid Sequence of aMTD543) [compound 543] | 11.7 | 7.9 | 4.0 | – | – | – | – |
| 544 (IVALIVAPAAVP; Amino acid Sequence of aMTD544) [compound 544] | 23.4 | 15.6 | 7.9 | – | – | – | – |
| 545 (VVLVLAAPAAVP; Amino acid Sequence of aMTD545) [compound 545] | 34.6 | 23.1 | 11.7 | – | – | – | – |
| 561 (AAVAIVLPAVVP; Amino acid Sequence of aMTD561) [compound 561] | – | – | – | 3.9 | 1.3 | 2.6 | – |
| 562 (ALIAAIVPALVP; Amino acid Sequence of aMTD562) [compound 562] | 32.7 | 21.8 | 11.0 | – | – | – | – |
| 564 (VAIALIVPALAP; Amino acid Sequence of aMTD564) [compound 564] | 43.6 | 29.1 | 14.7 | – | – | – | – |
| 565 (VAIVLVAPAVAP; Amino acid Sequence of aMTD565) [compound 565] | 7.5 | 5.0 | 2.5 | – | – | – | – |
| 582 (VAVALIVPALAP; Amino acid Sequence of aMTD582) [compound 582] | 30.6 | 20.4 | 10.3 | – | – | – | – |
| 583 (AVILALAPIVAP; Amino acid Sequence of aMTD583) [compound 583] | – | – | – | 7.3 | 2.4 | 4.8 | – |
| 585 (ALIVAIAPALVP; Amino acid Sequence of aMTD585) [compound 585] | – | – | – | 6.6 | 2.2 | 4.4 | – |
| 601 (AAILIAVPIAAP; Amino acid Sequence of aMTD601) [compound 601] | 26.8 | 17.9 | 9.0 | – | – | – | – |
| 602 (VIVALAAPVLAP; Amino acid Sequence of aMTD602) [compound 602] | 9.9 | 5.8 | 3.4 | – | – | – | – |
| 603 (VLVALAAPVIAP; Amino acid Sequence of aMTD603) [compound 603] | 54.1 | 36.1 | 18.2 | – | – | – | – |
